According to US20070254891A1, “Crystalline forms of 4-(2-fluorophenyl)-6-methyl-2-(piperazin-1-yl)thieno[2,3-d]pyrimidine” (Dynogen Pharmaceuticals, Inc., priority 2006, published 2007):

Assays:
Assay type in all cases: physicochemical
[1] = 10 week stability study at 40° C./75% RH and 60° C./75% RH, light and dark
Procedure: (§1) Purity analysis was performed on an Agilent HP1100 system equipped with a diode array detector and using Chemstation V9 software. Gradient, Reverse Phase methods (duration approximately 40 minutes) were used in a HPLC1 system. A Thermo-Electron Corporation HyPurity C18 5 um 150×4.6 mm column was used at 25° C. Test samples were made-up of 0.2 mg/ml of the compound in acetonitrile:water (1:1 v/v). 10 μl of sample was injected into the column. The flow rate through the column was 1 ml/min and the detection wavelength, bandwidth was 254,8 nm. Phase A was 0.1% phosphoric acid in water and Phase B was 0.1% phosphoric acid in acetonitrile. The mobile phase timetable is shown below in Table 2.
Samples of Form I and II were tested at 40° C./75% RH and 60° C./75% RH in both light and dark conditions for up to 10 weeks. As the samples were located in temperature/humidity control chambers, the exposure to light was limited to normal laboratory light conditions with artificial light and some winter daylight through the windows.
Approximately 100 mg of each sample was weighed into plastic weighing boats and spread out to form an even thin layer for each of the temperature/humidity/light conditions, as shown in Table 6. The dark samples were protected from exposure to light by wrapping them in aluminum foil. The foil was pierced to allow exposure to humidity.
Time points chosen for HPLC analysis during the stability study were T=0, 1, 2, 5 and 10 weeks. At 10 weeks, the samples were analyzed using XRPD, DSC and polarized light microscopy.

[2] = Variable temperature XRPD (VT-XRPD); conditions: 25° C. to 245° C., then cooled to 30° C.
Procedure: Samples run under ambient conditions were prepared as flat plate specimens using powder without grinding unless otherwise stated. Approximately 1-2 mg of the sample was lightly pressed on a glass slide to obtain a flat surface. Samples run under non-ambient conditions (VT-XRPD) were mounted on a silicon wafer with heat conducting compound. The sample was then heated to the appropriate temperature at about 20° C./minute and subsequently held isothermally for about 1 minute before data collection was initiated.
Three samples were studied using variable temperature XRPD (VT-XRPD): Form I as received, substantially pure Form I as prepared in Example 3, and substantially pure Form II as prepared in Example 3. VT-XRPD studies were initially carried out on substantially pure Form I as prepared in Example 3 with measurements at 25° C., 50° C., 80° C., 150° C., 220° C., 225° C., 250° C. and cooling to 29° C. Prior to measurement of the last XRPD pattern, the material was crushed due to the growth of large crystals. An overlay of the XRPD patterns can be found in FIG. 4A.
An experiment was also carried out on Form I as received, with measurements at 26° C., 50° C., 150° C., 200° C., 210° C., 220° C., 230° C. and cooling to 27° C. An overlay of the XRPD patterns can be found in FIG. 4B. […] (see peak at ˜14.7 2θ). […]

[3] = Gravimetric vapor sorption (GVS)
Procedure: GVS was used to determine the amount of water adsorbed by a sample. Briefly, samples were run on a Hiden IGASorp moisture sorption analyzer running CFRSorp software. Sample sizes were typically 10 mg. A moisture adsorption desorption isotherm was performed as outlined below in Table 3 (2 scans giving 1 complete cycle). Samples were loaded/unloaded at typical room humidity and temperature (40% RH, 25° C.). Samples were then analyzed by XRPD after GVS analysis, e.g., to determine whether any structural changes took place after adsorption of water. The standard isotherm was performed at 25° C. at 10% RH intervals over a 0-90% RH range.

[4] = Aqueous solubility with pH measurement; conditions: water, 25° C., 24 hours; hydrochloride
Procedure: Each sample was suspended in 0.25 ml of solvent (water) in an amount effective to produce a maximum final concentration of greater than or equal to about 10 mg/ml of the parent free form of the compound (i.e., adding excess sample to account for the weight of the salt). […] The filtrate was then diluted down 101 times.

[5] = Storage at 40° C./75% RH under ambient light (XRPD, HPLC purity, colour)
Procedure: as §1
Form I was characterized by pKa, LogP, LogPion and LogD determination and prediction, XRPD before and after storage at 40° C./75% RH for 4 weeks, PLM, DSC and TGA, ^1HNMR, solubility in water with pH measurement, HPLC purity before and after storage at 40° C./75% RH for 4 weeks, water content, GVS with XRPD and purity analysis after measurement, and VT-XRPD.
Form II has been characterized using XRPD before and after storage at 40° C./75% RH for 3 weeks, PLM, DSC and TGA, Solubility in water with pH measurement, HPLC purity, Water content, GVS with XRPD analysis after measurement, and VT-XRPD.

Work on Cc1cc2c(-c3ccccc3F)nc(N3CCNCC3)nc2s1.Cl [Form II, 4-(2-fluorophenyl)-6-methyl-2-(piperazin-1-yl)thieno[2,3-d]pyrimidine hydrochloride] yielded a Purity % ([1]; 40° C./75% RH, Dark, 1 week) of 99.9%, a Purity % ([1]; 40° C./75% RH, Dark, 2 weeks) of 100% and a Purity % ([1]; 40° C./75% RH, Dark, 5 weeks) of 100%. For the same molecule, the Purity % ([1]; 40° C./75% RH, Dark, 10 weeks, hydrochloride) was 100%, the Purity % ([1]; 40° C./75% RH, Light, 1 week) was 99.9% and the Purity % ([1]; 40° C./75% RH, Light, 2 weeks) was 100%. It also gave a Purity % ([1]; 40° C./75% RH, Light, 5 weeks, hydrochloride) of 99.9%, a Purity % ([1]; 40° C./75% RH, Light, 10 weeks, hydrochloride) of 99.9% and a Purity % ([1]; 60° C./75% RH, Dark, 1 week) of 99.9%. For the same molecule, the Purity % ([1]; 60° C./75% RH, Dark, 2 weeks, hydrochloride) was 100%, the Purity % ([1]; 60° C./75% RH, Dark, 5 weeks) was 100% and the Purity % ([1]; 60° C./75% RH, Dark, 10 weeks, hydrochloride) was 99.9%. The Purity % ([1]; 60° C./75% RH, Light, 1 week) was 99.8%, the Purity % ([1]; 60° C./75% RH, Light, 2 weeks, hydrochloride) was 99.9% and the Purity % ([1]; 60° C./75% RH, Light, 5 weeks, hydrochloride) was 99.8%. For the same molecule, the Purity % ([1]; 60° C./75% RH, Light, 10 weeks, hydrochloride) was 99.7%, the Purity % ([1]; time point 0 weeks, hydrochloride) was 99.9% and the “Stability as indicated by the HPLC data” value ([1]; up to 10 weeks, 40° C./75% RH and 60° C./75% RH) was “stable to ambient light levels as well as elevated temperature and humidity”. The “Form on heating (VT-XRPD)” value [2] was “remained as Form II throughout the experiment”, the “XRPD reanalysis after GVS” value ([3]; after one adsorption/desorption cycle) was “did not show any change” and the GVS weight increase ([3]; between 0 and 40% RH) was 1.4%. The “GVS weight increase, equivalent water” value ([3]; between 0 and 40% RH) was 0.29 moles of water, the “GVS weight increase, equivalent water” value ([3]; between 0 and 90% RH) was 0.39 moles of water and the “GVS total weight increase” value ([3]; between 0 and 90% RH, single cycle, 25° C., hydrochloride) was 1.9%. The “Aqueous solubility (free base equivalent)” value [4] was 1600 µg/mL, the “pH of the solubility sample” value [4] was 6.39 and the “Colour of material surface after storage” value ([5]; 3 weeks at 40° C./75% RH, ambient light) was “had not changed color”. For the same molecule, the XRPD after storage ([5]; 40° C./75% RH for 4 days, samples from acetone and acetonitrile) was “remained unchanged”, the “XRPD pattern after storage” value ([5]; 40° C./75% RH for three weeks) was “unchanged” and the “HPLC purity after storage” value ([5]; three weeks at 40° C./75% RH) was 100%.
